# Measurements: PubChem BioAssay (NCI)
#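 Cells were grown in 96-well plates and exposed to each compound for 48 hours at five concentrations; endpoints were interpolated linearly between bracketing concentrations, or set to the highest concentration if not reached. GI50 marks 50% less growth. TGI: total growth inhibition.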
# What was measured:
# Test in all cases: inhibition of tumour cell growth, NCI panel, 48 h
# SN12C renal = system: SN12C renal
# CAKI-1 renal = system: CAKI-1 renal
# SNB-19 CNS = system: SNB-19 CNS
# U251 CNS = system: U251 CNS
# UO-31 renal = system: UO-31 renal
# COLO 205 colon = system: COLO 205 colon
# EKVX NSCLC = system: EKVX NSCLC
# NCI-H522 lung = system: NCI-H522 lung
# NCI-H226 lung = system: NCI-H226 lung
# SF-295 CNS = system: SF-295 CNS
SMILES,GI50 (SN12C renal),TGI (SN12C renal),GI50 (CAKI-1 renal),TGI (CAKI-1 renal),GI50 (SNB-19 CNS),TGI (SNB-19 CNS),GI50 (U251 CNS),TGI (U251 CNS),GI50 (UO-31 renal),TGI (UO-31 renal),GI50 (COLO 205 colon),TGI (COLO 205 colon),GI50 (EKVX NSCLC),TGI (EKVX NSCLC),GI50 (NCI-H522 lung),TGI (NCI-H522 lung),GI50 (NCI-H226 lung),TGI (NCI-H226 lung),GI50 (SF-295 CNS),TGI (SF-295 CNS)
COc1cc2c3c(c4c5ccccc5[nH]c4c2c(OC)c1OC)C(=O)N(CCN1CCCCC1)C3=O,1.1 µM,2.54 µM,0.811 µM,2.3 µM,1.05 µM,2.42 µM,1.12 µM,2.49 µM,1.03 µM,2.32 µM,0.849 µM,3.25 µM,1.5 µM,3.42 µM,0.794 µM,2.76 µM,1.08 µM,4.57 µM,1.25 µM,3.13 µM
COc1ccc(CNc2nc(NCc3ccc(OC)cc3)c3n[nH]c(C(C)C)c3n2)cc1,9.14 µM,27.7 µM,6.44 µM,> 100 µM,4.46 µM,23.1 µM,4.22 µM,21.1 µM,4.81 µM,15 µM,,,8.09 µM,23.8 µM,2.26 µM,4.51 µM,14.1 µM,59.8 µM,3.24 µM,9.96 µM
COc1ccc(C(=O)O)c(Cc2ccc3ccccc3c2)c1,,> 100 µM,,> 100 µM,,> 100 µM,,> 100 µM,,> 100 µM,,> 100 µM,,> 100 µM,,> 100 µM,,> 100 µM,,> 100 µM
CC(=O)Nc1sc2c(c1-c1nc3ccccc3s1)CNC2,2.5 µM,15.5 µM,2.05 µM,> 50 µM,3.49 µM,28.9 µM,4.06 µM,30.3 µM,0.648 µM,11.4 µM,1.88 µM,9.73 µM,2.59 µM,21.9 µM,2.62 µM,10.8 µM,3.27 µM,16.7 µM,2.25 µM,9.93 µM
Nc1nc2c(c3cnccc13)C(c1cccc(Cl)c1)Cc1cnccc1-2 (stereo not drawn),0.668 µM,14.4 µM,0.434 µM,15.5 µM,0.453 µM,12.4 µM,0.336 µM,1.08 µM,0.841 µM,14.8 µM,0.296 µM,0.872 µM,0.441 µM,15.1 µM,0.247 µM,0.718 µM,0.673 µM,14.7 µM,0.273 µM,0.914 µM
Cc1cc2c(c(N)c1C)C(=O)c1ccccc1C2=O,,> 100 µM,,55.3 µM,,> 100 µM,,96.6 µM,,33.1 µM,,> 100 µM,,,,> 100 µM,,,,86.6 µM
O=C(O)/C=C\C(=O)Nc1ccc2c(c1)C(=O)c1cc(F)ccc1-2,,> 100 µM,,> 100 µM,,> 100 µM,,> 100 µM,,> 100 µM,,> 100 µM,,> 100 µM,,> 100 µM,,> 100 µM,,> 100 µM
CC1CCC23COC(=O)C2C(O)CCC3C1(C)CC(O)c1ccoc1 (stereo not drawn),,> 100 µM,,,,> 100 µM,,> 100 µM,,> 100 µM,,> 100 µM,,> 100 µM,,> 100 µM,,> 100 µM,,> 100 µM
COc1ccc(Cn2c(Br)c3c(c2-c2cc(OC)c(OC)c(OC)c2)CCc2sc(NC(C)=O)nc2-3)cc1,4.99 µM,> 100 µM,4.21 µM,> 100 µM,> 100 µM,> 100 µM,3.69 µM,> 100 µM,3.69 µM,35.1 µM,2.53 µM,5.78 µM,,,2.17 µM,9.22 µM,39.3 µM,> 100 µM,2.41 µM,8.54 µM
O=C(CCl)Nc1ccc2c(c1)C(=O)c1ccc(NC(=O)CCl)cc1C2=O,0.35 µM,1.76 µM,0.683 µM,1.98 µM,0.547 µM,2.98 µM,,,0.449 µM,1.88 µM,,,,,0.194 µM,0.57 µM,0.229 µM,0.711 µM,1.44 µM,3.29 µM
BrC12c3ccccc3Sc3ccccc3C1(Br)c1ccccc12 (stereo not drawn),,76.6 µM,,72.9 µM,,> 100 µM,,33.7 µM,,> 100 µM,,76.3 µM,,,,44.6 µM,,38.7 µM,,61.4 µM
N#CC1=C(c2ccccc2)C(O)(c2ccccc2)NC1=O (stereo not drawn),,> 100 µM,,> 100 µM,,,,> 100 µM,,> 100 µM,,> 100 µM,,> 100 µM,,,,> 100 µM,,> 100 µM
CCOC(=O)/C=C/c1ccccn1,,> 100 µM,,> 100 µM,,,,> 100 µM,,> 100 µM,,> 100 µM,,> 100 µM,,> 100 µM,,> 100 µM,,> 100 µM
CN(C)/C=N/c1nc2ncn(CCOC(=O)c3ccccc3)c2c(=O)[nH]1,,> 100 µM,,> 100 µM,,,,> 100 µM,,> 100 µM,,> 100 µM,,> 100 µM,,> 100 µM,,> 100 µM,,> 100 µM
CC(O[Si](C)(C)C)C1C=CC(C)n2c(=O)n(-c3ccccc3)c(=O)n21 (stereo not drawn),,,,> 100 µM,,> 100 µM,,> 100 µM,,> 100 µM,,> 100 µM,,> 100 µM,,,,,,> 100 µM
CCc1ccc(Nc2cc(C)nc3nc(C)nn23)cc1,46.1 µM,> 100 µM,40.1 µM,> 100 µM,53.4 µM,> 100 µM,75.2 µM,> 100 µM,23.6 µM,> 100 µM,66.9 µM,> 100 µM,,,42.3 µM,> 100 µM,85 µM,> 100 µM,78.2 µM,> 100 µM
Cc1ccc(NC(=O)c2nc(S(C)=O)oc2-c2ccc(F)cc2)cc1Nc1nccc(-c2cccnc2)n1 (stereo not drawn),1.81 µM,3.73 µM,,,2.15 µM,3.91 µM,1.98 µM,3.57 µM,1.73 µM,3.14 µM,2.03 µM,4.41 µM,2.62 µM,6.65 µM,1.05 µM,3.04 µM,3.84 µM,25.8 µM,15.1 µM,29.2 µM

SMILES,GI50 (SN12C renal),TGI (SN12C renal),GI50 (CAKI-1 renal),TGI (CAKI-1 renal),GI50 (SNB-19 CNS),TGI (SNB-19 CNS),GI50 (U251 CNS),TGI (U251 CNS),GI50 (UO-31 renal),TGI (UO-31 renal),GI50 (COLO 205 colon),TGI (COLO 205 colon),GI50 (EKVX NSCLC),TGI (EKVX NSCLC),GI50 (NCI-H522 lung),TGI (NCI-H522 lung),GI50 (NCI-H226 lung),TGI (NCI-H226 lung),GI50 (SF-295 CNS),TGI (SF-295 CNS)
Nc1c(C(=O)Nc2ccccc2)sc2nc3c(cc12)CCCC3,1.23 µM,> 100 µM,1.13 µM,> 100 µM,18.1 µM,> 100 µM,0.473 µM,34 µM,1.48 µM,> 100 µM,1.24 µM,13.8 µM,,,0.872 µM,> 25.8 µM,3.31 µM,> 100 µM,0.635 µM,49.6 µM
c1ccc(C2N3CCCCC3[C@@H]3c4[nH]c5ccccc5c4CCN23)cc1 (stereo partly drawn),,> 100 µM,,> 100 µM,,> 100 µM,,> 100 µM,,> 100 µM,,48.2 µM,,> 100 µM,,,,,,> 100 µM
O=CC1(C2(C=O)c3ccccc3-c3ccccc32)c2ccccc2-c2ccccc21,2.34 µM,5.83 µM,1.27 µM,3.62 µM,,,2.23 µM,5.6 µM,1.92 µM,4.32 µM,,,1.96 µM,5.24 µM,2.01 µM,4.38 µM,3.3 µM,7.24 µM,,
CNC1C(OC2C(OC3C(O)C(O)C(O)C(O)C3O)OC(C)C2(O)CO)OC(CO)C(O)C1O (stereo not drawn) (tested in a mixture with another compound),,> 100 µM,,,,> 100 µM,,> 100 µM,,> 100 µM,,> 100 µM,,> 100 µM,,> 100 µM,,> 100 µM,,> 100 µM
C[n+]1ccc(-c2c3nc(c(-c4ccc5c(ccc[n+]5C)c4)c4ccc([nH]4)c(-c4cc[n+](C)cc4)c4nc(c(-c5ccc6c(ccc[n+]6C)c5)c5ccc2[nH]5)C=C4)C=C3)cc1,> 50 µM,> 50 µM,> 50 µM,> 50 µM,24.2 µM,> 50 µM,28.8 µM,> 50 µM,19.9 µM,> 50 µM,23.1 µM,> 50 µM,> 50 µM,> 50 µM,> 50 µM,> 50 µM,,,40.5 µM,> 50 µM
CN1CCCCC1CCN1c2ccccc2Sc2ccc(S(C)=O)cc21 (stereo not drawn),,> 100 µM,,> 100 µM,,> 100 µM,,> 100 µM,,,,> 100 µM,,> 100 µM,,> 100 µM,,> 100 µM,,> 100 µM
CCN1CCN(C(=O)[C@]23CCC(C)(C)C[C@@H]2C2=CC[C@@H]4[C@@]5(C)C/C(=C/c6cccnc6)C(=O)C(C)(C)[C@@H]5CC[C@@]4(C)[C@]2(C)CC3)CC1,1.22 µM,2.54 µM,2.08 µM,11.8 µM,1.68 µM,3.46 µM,1.58 µM,3.11 µM,1.35 µM,2.67 µM,1.89 µM,4.74 µM,1.9 µM,6.48 µM,1.61 µM,3.75 µM,,,1.66 µM,3.15 µM
Cc1cccc(NC(=O)CC#N)c1Cl,,> 100 µM,,> 100 µM,,> 100 µM,,> 100 µM,,> 100 µM,,,,> 100 µM,,> 100 µM,,> 100 µM,,> 100 µM
O=C1C(Cl)=C(Nc2cccc(O)c2)C(=O)N1c1cccc(Cl)c1Cl,14.5 µM,28.2 µM,3.14 µM,20.2 µM,19.1 µM,82.9 µM,12.4 µM,30.8 µM,23.3 µM,> 100 µM,15.3 µM,38.9 µM,49.6 µM,> 100 µM,12.4 µM,27 µM,,,3.28 µM,25.2 µM
CCCN1CCN(c2ccc3nc(-c4ccc5nc(-c6ccc(OCC)c(OCC)c6)[nH]c5c4)[nH]c3c2)CC1,0.526 µM,2.14 µM,1.02 µM,3.28 µM,0.616 µM,1.98 µM,0.398 µM,1.55 µM,1.58 µM,3.32 µM,0.164 µM,1.4 µM,1.4 µM,7.72 µM,,,0.495 µM,2.06 µM,0.391 µM,2.03 µM
COc1ccc(CC2C3=C(CCCC3)CCN2C)cc1 (stereo not drawn),,> 100 µM,,> 100 µM,,> 100 µM,,> 100 µM,,> 100 µM,,> 100 µM,,> 100 µM,,,,> 100 µM,,> 100 µM
CC([O-])C(=O)[O-].NCC1CCC1CN.[Pt+4] (stereo not drawn),> 10 µM,> 10 µM,> 10 µM,> 10 µM,> 10 µM,> 10 µM,> 10 µM,> 10 µM,,,> 10 µM,> 10 µM,> 10 µM,> 10 µM,> 10 µM,> 10 µM,> 10 µM,> 10 µM,> 10 µM,> 10 µM
C/C(=N\NC(=O)c1ccncc1)c1ccc(O)cc1O,6.48 µM,> 100 µM,2.37 µM,8 µM,5.29 µM,> 100 µM,1.59 µM,> 100 µM,2.82 µM,20.5 µM,3.8 µM,> 100 µM,2.56 µM,> 100 µM,,,5.14 µM,80.9 µM,2.39 µM,6.69 µM
CSc1nc2c(c(=O)[nH]1)C(c1ccc(Cl)cc1)C1=C(N2)/C(=C/c2ccc(Cl)cc2)CNC1 (stereo not drawn),2.06 µM,4.7 µM,2.11 µM,5.09 µM,2.31 µM,8.29 µM,1.61 µM,3.09 µM,1.43 µM,2.91 µM,1.91 µM,3.53 µM,,,1.85 µM,4.81 µM,1.62 µM,3.27 µM,1.96 µM,4.43 µM
CC(=O)c1ccc(NCN2C(=O)c3ccccc3C2=O)cc1,,> 100 µM,,> 100 µM,,> 100 µM,,> 100 µM,,> 100 µM,,> 100 µM,,> 100 µM,,> 100 µM,,,,> 100 µM
Cc1ccc(C2=C(c3ccccc3)C(O)(c3ccc(C)cc3)C(c3ccccc3)=C2c2ccc(C)cc2)cc1,,> 100 µM,,> 100 µM,,> 100 µM,,> 100 µM,,,,> 100 µM,,> 100 µM,,,,,,> 100 µM
